Source: patent publication US7652037B2, “Methods of lowering lipid levels in a mammal” (City Of Hope, priority 2003, dated 2010)

What was measured:
STZ-Diabetic Rats [1] = assay: AGEs/ALEs (CML, CEL) in skin collagen by LC-ESI/MS/MS (Example 12); assay type: in vivo, rat
Protocol: Tail tendon collagen was isolated from each rat in Example 11 and the degree of AGE formation in collagen was assessed by measurement of fluorescent AGE after enzymatic digestion. Figarola et al., Diabetologia 46:1140-115, 2003. Skin collagen isolation and reduction was performed as described in Shaw et al., Methods Mol. Biol. 186:129-137, 2002. Levels of AGEs/ALEs were normalized to the lysine content of the collagen samples.
Ion-pair reversed-phase liquid chromatography/tandem mass spectroscopy analysis was performed using an Agilent Technologies™ LC1100 series system interfaced to a Micromass Quatro™ Ultima Triple Quadripole Mass Spectrometer. HPLC separation was achieved using a Phenomenex Synergi™ Hydro-RP […] 80A 150×2.0 mm column preceded by a Phenomenex C18 guard column. The column temperature was maintained at 25° C. and the flow was 0.2 mL/minute. The isocratic mobile phase consisted of 10% acetonitrile and 0.1% heptafluorobutyric acid in water. Total run time was 12 minutes; injection volume was 20 μL. The autoinjector temperature was 5° C. The electrospray ionization source of the mass spectrophotometer was operated in the positive ion mode with a cone gas flow of 190 L/hour and desolvation gas flow of 550 L/hour. The capillary voltage was set to 2.7 kV. Cone and collision cell voltages were optimized to 25 V and 13 eV for CML, 33 V and 12 eV d4CML, 24 V and 14 eV for CEL, […] and 14 eV for D8CEL, and […] and 16 eV for lysine, respectively. […] The desolvation temperature was increased to 300° C., and the solvent delay program was used from 0 to 3 minutes and 10 to 12 minutes. The fragmentation of these compounds can be induced under collision dissociation conditions and acidic mobile phase. The precursor→product ion combinations at m/z were 205.1→130.11 for CML, 209.12→134.12 for d4CML, 219.11→130.11 for CEL, 227.18→138.16 for d8CEL, 147.15→84.21 for lysine and 151.27→88.33 for DL-d4Lysine were used in multiple reaction monitoring (MRM) mode to determine these compounds. MassLynx™ version 3.5 software was used for data acquisition and processing.
All solutions of standards and internal standards were prepared in water. Standard solution containing both CML and CEL were prepared at six concentrations: 4, 10, 20, 40, 100 and 200 pmol/mL for CML and 2, 5, 10, 20, 50 and 100 pmol/mL for CEL. Quality control solutions were prepared at two concentrations: 7.5 and 150 pmol/mL for CML and 3.75 and 75 pmol/mL for CEL. A stock solution of heavy-labeled internal standards (d4CML and d8CEL) was prepared at 800 pmol/mL. For generation of a standard curve, 130 μL of standard solution was freshly mixed with 10 μL 0.1 M ammonium bicarbonate, 10 μL 0.05% HFBA and 10 μL internal standard stock solution to give a caliber. […]

[2] = Hydroxyl radical production, hydroxylation of benzoate by H2O2; settings: sodium benzoate + H2O2, cell-free
Protocol: The effects of the compounds on free radical production were evaluated in a cell-free system. In vitro hydroxyl radical production was determined by the hydroxylation of benzoate by H2O2 as described in Giardino et al., Diabetes 47:1114-1120, 1998. In brief, 30 mmol/l sodium benzoate in PBS buffer, pH 7.4, was incubated with 10 mmol/l H2O2 overnight at 37° C. alone and in the presence of various amounts of inhibitor compounds. After incubation, aliquots from each sample were analyzed for fluorescence (305 nm excitation; 408 nm emission). Results were expressed as the amount of salicylate equivalent (μM) produced by the hydroxylation of benzoate. Mannitol, a known hydroxyl radical scavenger, was included in the experiment as control.

STZ-Diabetic Rats [3] = assay: Total plasma/serum triglycerides and cholesterol in STZ-diabetic rats (Example 2); assay type: in vivo, rat; settings: 32 weeks, towards levels of non-diabetic animals
Protocol: Male Sprague-Dawley rats (about 175 to 200 g) were adapted for one week prior to treatment, then rendered diabetic by intra-peritoneal injection of STZ (65 mg/kg in citrate buffer, pH 4.5) after an overnight fast. Control (non-diabetic) animals were injected with the buffer only. Diabetes was confirmed by measuring the plasma glucose concentrations 7 days after Streptozotocin (STZ)-injection. Only animals with a plasma glucose concentration greater than 20 mmol were classified as diabetic and used in the study. These diabetic rats were divided randomly into an untreated diabetic control group and a diabetic treatment group. The treatment group received an LR compound at 50 mg/l in their drinking water throughout the duration of the study (32 weeks for LR-90; 30 weeks for LR-9 and LR-74). All animals were housed individually and were given free access to food and water.
Blood (from the tail vein) and urine samples were collected from rats for glycemic control analysis and albuminuria measurements. Glycemia was monitored every 8 weeks by measuring plasma glucose and glycated hemoglobin. Plasma or serum also was tested for total cholesterol and total triglycerides. Progression of renal dysfunction was assessed by measuring urinary albumin to creatinine ratio (UA/Cr) and serum or plasma creatinine. […]

Row | Molecule | CEL concentration in skin collagen (STZ-Diabetic Rats [1]) | CML concentration in skin collagen (STZ-Diabetic Rats [1]) | inhibition of hydroxyl radical formation [2] | reduction of serum cholesterol (STZ-Diabetic Rats [3]) | reduction of serum triglycerides (STZ-Diabetic Rats [3])
1 | CC(C)(Oc1ccc(NC(=O)c2ccc3ccccc3c2)cc1)C(=O)O [LR-9, 4-(2-napthylcarboxamido) phenoxyisobutyric acid] | significantly limited the increase | significantly limited the increase | strong inhibitors |  | 
2 | CC(Oc1cccc2cccnc12)C(=O)O (centres unmarked) [LR-74, 2-(8-quinolinoxy) propionic acid] | significantly limited the increase | significantly limited the increase | strong inhibitors |  | 
3 | methylene bis(4,4′-(2-chlorophenylureidophenoxyisobutyric acid) [LR-90] |  |  |  | 50% | 50%
